In patent US12479858B2, “Macrocyclic compounds as sting agonists and methods and uses thereof” (Lupin Limited, priority 2019, dated 2025):
Entries after “also recorded” stand apart in the source; their conditions may differ. Counter-ions that a name gives are not always drawn.

Key:
[1] = target: T1, Human STING (Homo sapiens, UniProt Q86WV6, G230A/H232R/R293Q/R71H); test: Stimulation of human STING signaling in THP1 cell line (THP1-Blue ISG SEAP reporter); assay type: cell-based; settings: THP1-Blue ISG cells, SEAP activity, 18-20 hours
T1 construct: using human THP1-Blue™ ISG SEAP based reporter cell line (Invivogen); host or cells: THP1-Blue ISG cells (human monocytic THP-1 derived SEAP reporter line)
Description: Biological Assay—Stimulation of Human STING Signaling in THP1 Cell Line
Compounds were tested for their STING activation potential using human THP1-Blue™ ISG SEAP based reporter cell line (Invivogen). Briefly, THP1-Blue ISG cells (100,000 cells/well) in 96 well plate were treated with varying concentrations of test and reference compounds and incubated at 37° C. with 5% CO2 for 18-20 hours. The control untreated cells were also set up. Post incubation, the cell supernatant was tested for SEAP (Secreted Embryonic Alkaline Phosphatase) activity using the QuantiBlue™ substrate reagent (Invivogen). The formation of blue coloured product was quantified by measuring absorbance at wavelength of 620 nm using PheraStar/Tecan reader. The average of duplicate readouts for each data point was plotted in GraphPad prism 6 against the concentration of test or reference compound to calculate EC50 value. The fold of SEAP induction or increase in luminescence at different data points was estimated against the un-stimulated cell control set.

[2] = test system: CD3^+CD8^+ T cells; test: Estimation of immune cell infiltration in tumors (flow cytometry); assay type: in vivo, Balb/c mice; settings: for % CD3^+CD8^+ T cells: infiltration in tumor, 96 h post treatment, 0.375 mg/kg single i.v.; for % CD3^+CD8^+ T cells infiltrating the tumor as compared to the vehicle-treated group: single i.v. dose of 0.375 mg/kg, 96 h post treatment initiation
Description: Estimation of immune cell infiltration in tumors: CT-26 tumor-bearing Balb/c mice were treated intravenously with 0.375 mg/kg of test compounds and blood and tumors were processed for analysis of CD8^+, CD3^+ and CD45^+ T cells at 24 h and 96 h after start of treatment. Blood samples were subjected to RBC lysis and the cells were recovered by centrifugation. Following wash with PBS, the cells were blocked using TruStain FcX™ blocking antibody and stained with fluorophore-tagged anti-CD45, anti-CD3 and anti-CD8 antibodies. Tumor samples were minced and subjected to tissue digestion using freshly prepared collagenase-IV solution (1 mg/ml) containing DNase (0.05 mg/ml) for 1-1.5 h at 37° C. and 150-200 rpm. Single cell suspension was prepared by filtering it through a 100 μm mesh and checked for cell viability. Cells were stained with various antibodies as mentioned above. The distinct T cell subsets were analysed on FACS Canto II (BD) and percentage of each population was calculated after initial gating of CD45^+ lymphocyte population.

[3] = test system: Interferon beta (IFNβ), interleukin-6 (IL-6) and tumor necrosis factor alpha (TNFα); test: Serum and tumor cytokine levels in CT26 tumor-bearing mice (ELISA); assay type: in vivo, BALB/c mice
Description: Pharmacokinetic and Pharmacodynamic Profiling and Estimation of Immune Cell Infiltration in Tumors Following Treatment with Compounds 2, 6, 8, 12 and 14
Serum and tumor cytokine levels and corresponding compound concentrations in mouse plasma were determined following single-dose intravenous administration in CT26 (murine colorectal carcinoma) tumor-bearing mice. Briefly, naïve BALB/c mice in the age group of 6-8 weeks were inoculated with 0.1 million CT-26 cells/animal in phosphate buffered saline (PBS), subcutaneously. […] Blood and tumor samples were harvested at various time points up to 24 h post-dose. Tumor samples were homogenized and prepared for cytokine estimation (ELISA) and compound concentration were determined by LC-MS/MS. Serum aliquots and tumor samples were snap-frozen and stored at −80° C. till further analysis. Serum and tumor samples were evaluated for Interferon beta (IFNβ), interleukin-6 (IL-6) and tumor necrosis factor alpha (TNFα) by enzyme linked immunosorbent assay (ELISA) using kits from R & D systems (Quantikine mouse IL-6 and TNFα kits) and PBL biosciences (Verikine mouse IFNβ kit).
Cytokine analysis from mouse serum samples: For IL-6 and TNFα estimation, 50 μL of test samples or internal standard or control were applied to wells in duplicates and incubated for 2 h at room temperature, followed by aspiration and washing four times with 400 μL of wash buffer. 100 μL of mouse IL-6 or TNFα conjugate solution was added and incubated further for 2 h at room temperature and followed later by 4 wash cycles. 100 μL of substrate solution was added to each well with addition of stop solution after 30 min. Optical density was measured at 450 nm averaged and was used for further calculations following subtraction of respective blank controls. Cytokine concentrations were determined by interpolating the optical density of samples into the reference standard curve utilizing four parameter logistic (4-PL) curve-fit. Cytokine concentrations were normalized with their respective dilution factors and represented in pg/mL. For IFNβ estimation, 100 μL test sample or internal standard or controls were applied to the wells in duplicates and incubated for 1 h at room temperature followed by three washes and addition of the anti-mouse IFNβ antibody solution with further 1 h incubation. This was followed by addition of horseradish peroxidase (HRP) solution and three washes, later addition of TMB substrate and reading the optical density at 450 nm. Optical densities were blank-subtracted and interpolated to the reference standard utilizing the four parameter logistic (4-PL) curve-fit. Cytokine concentrations were normalized with their respective dilution factors and represented in pg/mL. Tables 4 and 5 indicate cytokine levels for compounds 2, 6, 8, 12, and 14 in serum and tumor at different administered doses.
Cytokine analysis from tumor samples: Tumor samples were homogenized in a bead-based homogenizer and lysates were prepared with buffer supplemented with 1% Triton X-100 and protease inhibitors. Cytokine levels were estimated by ELISA and expressed as pg/g tumor.

[4] = 0.375 mg/kg single i.v., 3.5 h (Table 6)
[5] = 0.375 mg/kg single i.v., 8 h (Table 6)
[6] = 0.375 mg/kg single i.v., 12 h (Table 6)
[7] = 0.375 mg/kg single i.v., 24 h (Table 6)

T1 sequence (Q86WV6 whole entry R71H/G230A/H232R/R293Q): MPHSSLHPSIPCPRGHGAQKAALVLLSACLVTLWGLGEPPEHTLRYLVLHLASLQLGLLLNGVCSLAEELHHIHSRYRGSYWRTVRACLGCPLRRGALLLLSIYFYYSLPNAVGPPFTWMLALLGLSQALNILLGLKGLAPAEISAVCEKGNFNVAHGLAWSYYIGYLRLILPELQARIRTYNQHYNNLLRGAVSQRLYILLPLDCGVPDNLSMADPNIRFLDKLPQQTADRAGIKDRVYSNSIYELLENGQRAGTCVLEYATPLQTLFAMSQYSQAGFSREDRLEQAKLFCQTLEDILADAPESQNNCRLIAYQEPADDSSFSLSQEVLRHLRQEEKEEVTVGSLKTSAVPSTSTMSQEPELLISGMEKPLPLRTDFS

Q: For `CCn1nc(C)cc1C(=O)Nc1nc2cc(C(N)=O)cc3c2n1C/C=C/Cn1c(NC(=O)c2cc(C)nn2CC)nc2cc(C(=O)N[C@H]4CC[C@H](C(=O)O)CC4)cc(c21)OCCCO3` [Compound 2, (1R,4R)-4-((E)-12-carbamoyl-1,15-bis(1-ethyl-3-methyl-1H-pyrazole-5-carboxamido)-8,9,16,19-tetrahydro-7H-6,10-dioxa-2,14,15a,19a-tetraazacyclopentadeca[3,2,1-cd:8,9,10-c′d′]diindene-4-carboxamido)cyclohexane-1-carboxylic acid sodium salt], which EC50 [1] is on record?
A: The EC50 was 1 to 10 nM.

Q: And the “% CD3^+CD8^+ T cells” value [2]?
A: The value was 11.2 ± 0.2%.

Q: What about the “% CD3^+CD8^+ T cells infiltrating the tumor as compared to the vehicle-treated group” value ([2]; sodium salt, 0.375 mg/kg) of the same compound?
A: Its value is “higher percentage of T cell infiltration over that of vehicle control; also recorded: increase”.

Q: And the “Serum Cytokines IFNβ” value ([3]; 0.093 mg/kg single i.v., 3.5 h)?
A: Its value is 446 pg/mL.

Q: What about the “Serum Cytokines IL-6” value ([3]; 0.093 mg/kg single i.v., 3.5 h) of the same compound?
A: Its value is 1323 pg/mL.

Q: What about the “Serum Cytokines TNFα” value ([3]; 0.093 mg/kg single i.v., 3.5 h) of the same compound?
A: The value was 261 pg/mL.

Q: And the “Tumor Cytokines IFNβ” value ([3]; 0.093 mg/kg single i.v., 3.5 h)?
A: The value was 4000 pg/g.

Q: What about the “Tumor Cytokines IL-6” value ([3]; 0.093 mg/kg single i.v., 3.5 h) of the same compound?
A: The value was 4580 pg/g.

Q: What about the “Tumor Cytokines TNFα” value ([3]; 0.093 mg/kg single i.v., 3.5 h) of the same compound?
A: The value was 2460 pg/g.

Q: And the “Serum Cytokines IFNβ” value ([3]; 0.093 mg/kg single i.v., 8 h)?
A: The value was 64 pg/mL.

Q: What about the “Serum Cytokines IL-6” value ([3]; 0.093 mg/kg single i.v., 8 h) of the same compound?
A: Its value is 662 pg/mL.

Q: And the “Serum Cytokines TNFα” value ([3]; 0.093 mg/kg single i.v., 8 h)?
A: Its value is 210 pg/mL.

Q: And the “Tumor Cytokines IFNβ” value ([3]; 0.093 mg/kg single i.v., 8 h)?
A: The value was 955 pg/g.

Q: What about the “Tumor Cytokines IL-6” value ([3]; 0.093 mg/kg single i.v., 8 h) of the same compound?
A: The value was 1100 pg/g.

Q: And the “Tumor Cytokines TNFα” value ([3]; 0.093 mg/kg single i.v., 8 h)?
A: Its value is 637 pg/g.

Q: And the “Serum Cytokines IFNβ” value ([3]; 0.187 mg/kg single i.v., 3.5 h)?
A: The value was 1920 pg/mL.

Q: And the “Serum Cytokines IL-6” value ([3]; 0.187 mg/kg single i.v., 3.5 h)?
A: The value was 3139 pg/mL.

Q: And the “Serum Cytokines TNFα” value ([3]; 0.187 mg/kg single i.v., 3.5 h)?
A: Its value is 574 pg/mL.

Q: And the “Tumor Cytokines IFNβ” value ([3]; 0.187 mg/kg single i.v., 3.5 h)?
A: The value was 4169 pg/g.

Q: And the “Tumor Cytokines IL-6” value ([3]; 0.187 mg/kg single i.v., 3.5 h)?
A: The value was 4798 pg/g.

Q: And the “Tumor Cytokines TNFα” value ([3]; 0.187 mg/kg single i.v., 3.5 h)?
A: Its value is 3201 pg/g.

Q: What about the “Serum Cytokines IFNβ” value ([3]; 0.187 mg/kg single i.v., 8 h) of the same compound?
A: The value was 127 pg/mL.

Q: What about the “Serum Cytokines IL-6” value ([3]; 0.187 mg/kg single i.v., 8 h) of the same compound?
A: Its value is 738 pg/mL.

Q: What about the “Serum Cytokines TNFα” value ([3]; 0.187 mg/kg single i.v., 8 h) of the same compound?
A: The value was 136 pg/mL.

Q: And the “Tumor Cytokines IFNβ” value ([3]; 0.187 mg/kg single i.v., 8 h)?
A: Its value is 962 pg/g.

Q: What about the “Tumor Cytokines IL-6” value ([3]; 0.187 mg/kg single i.v., 8 h) of the same compound?
A: Its value is 2244 pg/g.

Q: And the “Tumor Cytokines TNFα” value ([3]; 0.187 mg/kg single i.v., 8 h)?
A: Its value is 531 pg/g.

Q: What about the “Serum Cytokines IFNβ” value ([3]; 0.375 mg/kg single i.v., 3.5 h) of the same compound?
A: The value was 8540 pg/mL.

Q: What about the “Serum Cytokines IL-6” value ([3]; 0.375 mg/kg single i.v., 3.5 h) of the same compound?
A: Its value is 6014 pg/mL.

Q: And the “Serum Cytokines TNFα” value ([3]; 0.375 mg/kg single i.v., 3.5 h)?
A: The value was 1242 pg/mL.

Q: What about the “Tumor Cytokines IFNβ” value ([3]; 0.375 mg/kg single i.v., 3.5 h) of the same compound?
A: The value was 8044 pg/g.

Q: And the “Tumor Cytokines IL-6” value ([3]; 0.375 mg/kg single i.v., 3.5 h)?
A: Its value is 8103 pg/g.

Q: What about the “Tumor Cytokines TNFα” value ([3]; 0.375 mg/kg single i.v., 3.5 h) of the same compound?
A: Its value is 6074 pg/g.

Q: And the “Serum Cytokines IFNβ” value ([3]; 0.375 mg/kg single i.v., 8 h)?
A: Its value is 263 pg/mL.

Q: And the “Serum Cytokines IL-6” value ([3]; 0.375 mg/kg single i.v., 8 h)?
A: Its value is 1201 pg/mL.

Q: And the “Serum Cytokines TNFα” value ([3]; 0.375 mg/kg single i.v., 8 h)?
A: The value was 160 pg/mL.

Q: What about the “Tumor Cytokines IFNβ” value ([3]; 0.375 mg/kg single i.v., 8 h) of the same compound?
A: Its value is 1723 pg/g.

Q: What about the “Tumor Cytokines IL-6” value ([3]; 0.375 mg/kg single i.v., 8 h) of the same compound?
A: Its value is 2715 pg/g.

Q: And the “Tumor Cytokines TNFα” value ([3]; 0.375 mg/kg single i.v., 8 h)?
A: Its value is 617 pg/g.

Q: And the “Serum Cytokines IFNβ” value ([3]; 0.375 mg/kg single i.v., 12 h)?
A: Its value is 14 pg/mL.

Q: And the “Serum Cytokines IL-6” value ([3]; 0.375 mg/kg single i.v., 12 h)?
A: Its value is 372 pg/mL.

Q: And the “Serum Cytokines TNFα” value ([3]; 0.375 mg/kg single i.v., 12 h)?
A: The value was 50 pg/mL.

Q: What about the “Tumor Cytokines IFNβ” value ([3]; 0.375 mg/kg single i.v., 12 h) of the same compound?
A: Its value is 323 pg/g.

Q: And the “Tumor Cytokines IL-6” value ([3]; 0.375 mg/kg single i.v., 12 h)?
A: Its value is 2794 pg/g.

Q: And the “Tumor Cytokines TNFα” value ([3]; 0.375 mg/kg single i.v., 12 h)?
A: The value was 298 pg/g.

Q: And the “cytokine levels over time” value ([3]; CT26 tumor-bearing mice, single i.v. dose)?
A: Its value is “sustained cytokine levels”.

Q: Which results are given for `CCn1nc(C)cc1C(=O)Nc1nc2cc(C(N)=O)cc3c2n1C/C=C/Cn1c(NC(=O)c2cc(C)nn2CC)nc2cc(C(=O)N[C@H]4CC[C@H](c5nnn[nH]5)CC4)cc(c21)OCCCO3` [Compound 6, (E)-N-((1R,4R)-4-(1H-tetrazol-5-yl)cyclohexyl)-1,15-bis(1-ethyl-3-methyl-1H-pyrazole-5-carboxamido)-8,9,16,19-tetrahydro-7H-6,10-dioxa-2,14,15a,19a-tetraazacyclopentadeca[3,2,1-cd:8,9,10-c′d′]diindene-4,12-dicarboxamide sodium salt]?
A: EC50 [1]: 1 to 10 nM; % CD3^+CD8^+ T cells [2]: 13.9 ± 1.3%; % CD3^+CD8^+ T cells infiltrating the tumor as compared to the vehicle-treated group [2]: increase; Serum IFNβ [3, 4]: 3375 ± 528.4 pg/mL; Tumor IFNβ [3, 4]: 6931 ± 1236.8 pg/g tumor; Serum IFNβ [3, 5]: 215 ± 39.9 pg/mL; Tumor IFNβ [3, 5]: 1814 ± 369.3 pg/g tumor; Serum IFNβ [3, 6]: BLQ; Tumor IFNβ [3, 6]: 1916 ± 842.7 pg/g tumor; Serum IFNβ [3, 7]: BLQ; Tumor IFNβ [3, 7]: 506 ± 239.1 pg/g tumor
